Tests used:
NOXA = NOXA protein expression in COLO 205 cells via Western blot; type: cell-based; conditions: eight hours after treatment, Western blot (FIG. 1)
Method: (§1) To identify an effect of aripiprazole on the expression of NOXA and PUMA proteins in cancer cells, COLO 205 cells were treated with aripiprazole. Eight hours later, proteins were extracted from cells after washing with PBS, and a level of NOXA and PUMA expression was checked via Western blot.

PUMA = PUMA protein expression in COLO 205 cells via Western blot; type: cell-based; conditions: eight hours after treatment, Western blot (FIG. 1)
Method: as §1

O=C1CCc2ccc(OCCCCN3CCN(c4cccc(Cl)c4Cl)CC3)cc2N1 [aripiprazole]
expression of NOXA protein (NOXA): increased
expression of PUMA protein (PUMA): increased
